The text below walks through data of paper PMC9732823, “Discovery of Dual Aβ/Tau Inhibitors and Evaluation of Their Therapeutic Effect on a Drosophila Model of Alzheimer’s Disease” (ACS Chemical Neuroscience, 2022).

Data set [1] concerns cerebellar granule neurons (CGNs). The experiment in a line: Neurotoxicity on primary cultures of cerebellar granule neurons (nuclei counting after Hoechst staining). Particulars: differentiated CGNs, 24 h, percentage of healthy nuclei on total nuclei, mean ± SEM of three experiments.
Data set [2] has as its system Arctic Aβ42 Drosophila flies. In words: Lifespan analysis in Arctic Aβ42 Drosophila flies. Particulars: 20 μM in fly food; days 5, 10, 20 post-eclosion.
Procedure: As longevity is a phenotype that can be rapidly measured in this in vivo AD model, we first assessed changes in Drosophila’s lifespan with and without treatment with 22 and 23 (20 μM). […] Doxycycline was tested at 50 μM, a concentration used in similar previous experiments.[59]
The transactivating protein GAL4 is placed under the control of a specific promoter, with its own spatial and temporal patterns, in this case, Elav, whereas the upstream activation sequence (UAS) localized upstream, the locus controlled by the UAS-Gal4; in our study, UAS expresses construct for the E22G variant of Aβ42 (Arctic Aβ42) (AlzArc2).[56],[64] Around 150 flies (half female/male) for each compound tested were collected and divided into groups of 25 flies. At the top of the media, 25 μL of doxycycline (50 μM), 22 (20 μM), or 23 (20 μM) were added fresh anytime the flies were flipped.
Briefly, males and females 25 per vial were kept at 25 °C.
For a further data set, the target named is T1, Tau protein (Homo sapiens, UniProt P10636).
T1 construct: expressed in transfected cells; host or cells: Escherichia coli BL21 (DE3) with pTARA and pRKT42
The experiment in a line: Inhibition of Tau aggregation in intact E. coli cells overexpressing Tau (ThS fluorescence). It is filed as cell-based, Escherichia coli. The gist of the method:
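E. coli BL21(DE3) expressing four-repeat Tau, arabinose-induced in M9 with 25 μM ThS, grown overnight at 37 °C with compound at 10 μM final. ThS emission at 485 nm (excitation 440 nm) normalized to ABS600; 100% = induced DMSO control, 0% = noninduced cells.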

The Papp is the rate of passage across a membrane or cell layer, normalised by area and donor concentration. In general, inhibition refers to how much of the control response was suppressed.

T1 sequence (P10636 1-441 isoform P10636-8): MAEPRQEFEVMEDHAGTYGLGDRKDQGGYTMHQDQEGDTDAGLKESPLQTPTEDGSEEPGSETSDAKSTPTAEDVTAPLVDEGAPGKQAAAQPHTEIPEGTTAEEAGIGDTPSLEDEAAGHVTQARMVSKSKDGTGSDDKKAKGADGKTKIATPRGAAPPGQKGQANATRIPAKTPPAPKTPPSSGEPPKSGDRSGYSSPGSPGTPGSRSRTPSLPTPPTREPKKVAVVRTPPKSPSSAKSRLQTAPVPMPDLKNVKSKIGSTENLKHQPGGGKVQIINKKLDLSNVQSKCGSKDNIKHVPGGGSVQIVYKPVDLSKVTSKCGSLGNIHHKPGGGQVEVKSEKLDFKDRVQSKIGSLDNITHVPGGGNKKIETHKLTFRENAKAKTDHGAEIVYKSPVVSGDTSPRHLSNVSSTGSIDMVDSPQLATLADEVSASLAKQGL

Consider `CN(C)CCN1C(=O)S/C(=C\c2ccc3c(c2)C(C)(C)c2cc(/C=C4\SC(=O)N(CCN(C)C)C4=O)ccc2-3)C1=O` [Compound 23, (5Z,5′Z)-5,5′-((9,9-Dimethyl-9H-fluorene-2,7-diyl)bis(methanylylidene))bis(3-(2-(dimethylamino)ethyl)thiazolidine-2,4-dione)], for which, in data set [1], the “% survival neurotoxicity @ 10 μM” value was 87.9 ± 3.4%. For the same compound, the Papp in the data set “PAMPA-BBB assay” (PAMPA, pH 7.4) stood at 18.9 ± 5.39 ×10⁻⁶ cm/s. Moreover, the “BBB permeability prediction” value in the data set “PAMPA-BBB assay” (PAMPA-BBB) is given as “predicted to passively diffuse across the BBB”. In the data set “PAMPA-BBB assay” (PAMPA-BBB penetration estimation), the “CNS (+/-)” value is “CNS + (CNS + (high BBB permeation predicted): Pe (×10-6 cm s-1) > 4.0)”. In addition, the “lifespan of Aβ42 Drosophila flies” value in data set [2] was “increase in longevity”. Moreover, the “% inhibition Tau aggregation @ 10 μM” value on Tau protein (intact E. coli cells, compound 10 μM, mean ± SEM of four independent experiments, 10 µM) turned out to be 41.9 ± 3.9%. Besides, the inhibition at 10 µM at Tau protein (read-out: % inhibition Tau aggregation @ 10 μM, intact E. coli cells, compound 10 μM, mean ± SEM of four independent experiments) is > 40%.
